Patent US4456618A, “Naphthenic and heterocyclic retinoic acid analogues” (SRI International, priority 1982, dated 1984)

What was measured:
[1] = system: Ornithine Decarboxylase; test: Ornithine decarboxylase (ODC) assay: inhibition of TPA-induced ODC induction in mouse skin; type: in vivo, mouse (female Charles River CD-1); conditions: topical, 1 hour before TPA (17 nmol)
Protocol: (§1) The ODC assay measures a compound's ability to prevent the induction of ODC. The tracheal organ culture assay measures a compound's ability to reverse keratinization.
The ODC assay is carried out as follows. Female Charles River CD-1 mice from Charles River Breeding Laboratories, Wilmington, Mass., are used (age 7 to 9 weeks). The dorsal hair of the mice is shaved 1 to 2 days before testing, and only mice showing no hair regrowth are used. A single dose of 12-O-tetradecanoylphorbol-13-acetate (TPA) (10.5 μg, 17 nmol) in 0.2 mL of acetone is applied topically to the back of each mouse. The test compound, at one of three dose levels (1.7, 17 and 170 nmol), dissolved in 0.2 mL of acetone is applied 1 hour before the TPA treatment to the test groups; the control group is treated with acetone alone. The mice are killed by cervical dislocation five hours after TPA treatment. Determinations are done in triplicate.
The epidermis is obtained from the sacrificed animals. To obtain sufficient material, the dorsal skins from 2 to 3 mice in each treatment group are pooled. The depilatory agent Nudit® (Helena Rubinstein, New York) is applied to the shaved area of the skin; after 5 minutes, it is washed off thoroughly with cold tap water. Then the skin is excised and plunged immediately into ice-cold water; it is then placed in a 55° C. water bath for 30 seconds and reimmersed in ice-cold water for at lease another 30 seconds. The skin is placed epidermis side up on a cold plate, and the epidermis is scraped off with a razor blade. The pooled epidermal sheets are homogenized (Polytron PT-10 homogenizer) at 0° to 4° C. for 15-20 seconds in 50 mM sodium phosphate and 0.1 mM ethylenediaminetetraacetic acid (EDTA), at a volume of 1 mL/skin.
The supernatant fraction remaining after centrifugation of the homogenate at 10,000×g for 30 seconds at 0° C. is used for the enzyme assay. Enzyme activity is determined using the microassay for ODC as described by Verma and Boutwell to measure the release of ^14 CO2 from DL-[1-^14 C]-ornithine (58 mCi/mmol) after incubation with the 10,000×g supernatant. The incubations are carried out by decanting, with a Pasteur pipette, 100 μL of the supernatant containing 100 to 120 μg of protein into two or three 15-mL Corex tubes in a shaking water bath at 37° C. The assay mixture in the tubes consists of 50 μL of 100 mM sodium phosphate buffer (pH 7.2), 10 μL of 4 mM pyridoxal phosphate, 40 μL of 25 mM dithiothreitol, and 1 μL of 0.1 M EDTA. The center wells in the tubes are filled with 200 μL of a 2:1 solution (v/v) of ethanolamine:2-methoxyethanol. The reaction is started by adding 50 μL of substrate (0.5 μCi of DL-[1-^14 C]-ornithine in 2 mM cold ornithine) at 1-minute intervals by injection to each of the stoppered tubes. Incubations are routinely carried out at 37° C. for 30 to 60 minutes. The reaction is stopped by addition of 0.5 ml of 2 M citric acid, and incubation is continued for an additional hour without heating to ensure complete absorption of ^14 CO2.
Radioactivity is measured using a toluene-based scintillant (4 g of PPO and 50 mg of POPOP/L of toluene) in a Beckman LS-250 liquid scintillation counter. Enzyme activity is determined in triplicate and expressed as nanomoles of CO2 released in 30 minutes per milligram of protein. Enzyme activity is linear for the protein concentration used. The protein concentrations of the epidermal extracts are determined by the Lowry procedure, using bovine serum albumin as the standard.

[2] = system: Hamster Tracheal Organ Culture; test: Reversal of keratinization in hamster tracheal organ culture; type: cell-based
Protocol: as §1
The tracheal organ culture assay is carried out as follows. Tracheas are taken from hamsters that are in very early stages of vitamin A deficiency and placed in organ culture. At the time of culture, the animals are still gaining weight; the tracheal epithelium is generally low columnar or cuboidal, with only occasional patches of squamous metaplasia. Each trachea is opened from the larynx to the carina along the membranous dorsal wall and cultured in a serum-free medium (CMRL-1066; with crystalline bovine insulin, 0.1 μg/ml; hydrocortisone hemisuccinate, 0.1 μg/ml; glutamine, 2 mM; penicillin, 100 units/ml; and streptomycin,100 μg/ml, added). Cultures are gassed with 50% oxygen, 45% nitrogen, and 5% CO2. The culture dishes are rocked at 35.5-36.0 degrees to allow the tracheas contact with both gas and medium. All tracheas are grown in medium containing no retinoid for the first 3 days. At the end of 3 days, some tracheas are harvested; almost all of these tracheas have significant squamous metaplasia, and approximately 60% have keratinized lesions. The remaining tracheas are then divided into different groups which are treated with either: (1) retinoid dissolved in dimethylsulfoxide (final concentration of DMSO in culture medium is never greater than 0.1%) or (2) an equivalent amount of DMSO alone. Culture medium is changed three times a week, and all of the remaining tracheas are harvested at the end of 10 days in culture. Tracheas are fixed in 10% buffered formalin and embedded in paraffin. Cross sections of five micrometers are made through the mid-portion, stained with hematoxylin and eosin, and then scored with a microscope for the presence of keratin and keratohyaline granules, both of which are found in approximately 90% of control cultures that received no retinoid for the entire 10 day culture period.

SMILES	Inhibition of Induction of Ornithine Decarboxylase by 12-O-Tetradecanoylphorbol-13-acetate in Mouse Skin, % Inhibition of Control ([1]; Dose 1.7 nmol)	Inhibition of Induction of Ornithine Decarboxylase by 12-O-Tetradecanoylphorbol-13-acetate in Mouse Skin, % Inhibition of Control ([1]; Dose 17 nmol)	Reversal of Keratinization, Active/Total Cultures ([2]; Conc 10^-8 M)	Reversal of Keratinization, Active/Total Cultures (%) ([2]; Conc 10^-8 M)	Reversal of Keratinization, Active/Total Cultures ([2]; Conc 10^-9 M)	Reversal of Keratinization, Active/Total Cultures (%) ([2]; Conc 10^-9 M)	Reversal of Keratinization, Active/Total Cultures ([2]; Conc 10^-10 M)	Reversal of Keratinization, Active/Total Cultures (%) ([2]; Conc 10^-10 M)
CC1=C(/C=C/c2ccc3cc(C=O)ccc3c2)C(C)(C)CCC1 [Example 1, (E)-6-[2-(2,6,6-trimethyl-1-cyclohexen-1-yl)ethenyl]-2-naphthaldehyde]	0%	45%	15/16	94%	7/14	50%	4/14	28%
CC1=C(/C=C/c2ccc3cc(C(=O)O)ccc3c2)C(C)(C)CCC1 [Example 3, 6-[2-(2,6,6-trimethyl-1-cyclohexen-1-yl)ethenyl]-2-naphthoicacid]	30%	48%	7/7	100%	7/7	100%	3/7	43%
CCOC(=O)c1ccc(/C=C(C)/C=C/C2=C(C)CCCC2(C)C)o1 [Example 4, (E)-1-(5-Carbethoxy-2-furanyl)-2-methyl-4-(2,6,6-trimethyl-1-cyclohexen-1-yl)-1,3-butadiene]	9%	9%	2/7	29%	2/7	29%	2/6	33%
CC1=C(/C=C/C(C)=C/c2ccc(C(=O)O)o2)C(C)(C)CCC1 [Example 5, (E)-1-(5-carboxy-2-furanyl)-2-methyl-4-(2,6,6-trimethyl-1-cyclohexen-1-yl)-1,3-butadiene]	7%	5%	3/6	50%	3/7	43%	3/7	43%
CCOC(=O)c1ccc(/C=C(C)/C=C/C2=C(C)CCCC2(C)C)s1 [Example 6, (E)-1-(5-Carbethoxythien-2-yl)-2-methyl-4-(2,6,6-trimethyl-1-cyclohexen-1-yl)-1,3-butadiene]	67%	77%	13/13	100%	10/14	71%	6/14	43%
CC1=C(/C=C/C(C)=C/c2ccc(C(=O)O)s2)C(C)(C)CCC1 [Example 8, (E)-1-(5-carboxythien-2-yl)-2-methyl-4-(2,6,6-trimethyl-1-cyclohexen-1-yl)-1,3-butadiene]	42%	67%	15/15	100%	14/15	93%	7/15	47%
